Assay results reported in article PMC9543379, “Dihydroxy‐Acid Dehydratases From Pathogenic Bacteria: Emerging Drug Targets to Combat Antibiotic Resistance” (Chemistry (Weinheim an Der Bergstrasse, Germany), 2022).

Assays:
Format in all cases: biochemical
[1] = molecular target: T1, CjDHAD (dihydroxy-acid dehydratase) (Campylobacter jejuni, UniProt Q9PJ98); assay: DNPH colorimetric endpoint assay with DHIV, 30-min pre-incubation
T1 construct: gene ilvD; hexa-histidine tag at the N-terminal, pET-28a

[2] = molecular target: T2, SaDHAD (dihydroxy-acid dehydratase) (Staphylococcus aureus, UniProt Q2FWK7); assay: as above
T2 construct: gene ilvD; hexa-histidine tag at the N-terminal, pET-28a

[3] = molecular target: T1, CjDHAD (dihydroxy-acid dehydratase); assay: DNPH colorimetric endpoint assay with DHIV, no pre-incubation
[4] = molecular target: T2, SaDHAD (dihydroxy-acid dehydratase); assay: as above

T1 sequence (Q9PJ98 whole entry): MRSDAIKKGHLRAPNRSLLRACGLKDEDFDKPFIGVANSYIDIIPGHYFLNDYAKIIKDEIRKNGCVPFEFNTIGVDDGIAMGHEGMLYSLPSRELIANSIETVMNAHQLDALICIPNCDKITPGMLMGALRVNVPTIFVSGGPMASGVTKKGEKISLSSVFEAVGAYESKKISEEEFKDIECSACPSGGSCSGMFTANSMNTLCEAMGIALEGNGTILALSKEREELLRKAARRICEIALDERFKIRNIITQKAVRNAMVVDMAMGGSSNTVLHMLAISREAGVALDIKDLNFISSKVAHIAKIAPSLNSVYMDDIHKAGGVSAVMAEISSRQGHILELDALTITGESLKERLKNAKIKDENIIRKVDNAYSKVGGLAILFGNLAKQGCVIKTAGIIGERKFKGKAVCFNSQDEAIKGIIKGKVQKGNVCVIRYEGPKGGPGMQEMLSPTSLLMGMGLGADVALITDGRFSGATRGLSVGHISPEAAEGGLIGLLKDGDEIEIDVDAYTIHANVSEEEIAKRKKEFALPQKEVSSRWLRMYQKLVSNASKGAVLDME
T2 sequence (Q2FWK7 whole entry): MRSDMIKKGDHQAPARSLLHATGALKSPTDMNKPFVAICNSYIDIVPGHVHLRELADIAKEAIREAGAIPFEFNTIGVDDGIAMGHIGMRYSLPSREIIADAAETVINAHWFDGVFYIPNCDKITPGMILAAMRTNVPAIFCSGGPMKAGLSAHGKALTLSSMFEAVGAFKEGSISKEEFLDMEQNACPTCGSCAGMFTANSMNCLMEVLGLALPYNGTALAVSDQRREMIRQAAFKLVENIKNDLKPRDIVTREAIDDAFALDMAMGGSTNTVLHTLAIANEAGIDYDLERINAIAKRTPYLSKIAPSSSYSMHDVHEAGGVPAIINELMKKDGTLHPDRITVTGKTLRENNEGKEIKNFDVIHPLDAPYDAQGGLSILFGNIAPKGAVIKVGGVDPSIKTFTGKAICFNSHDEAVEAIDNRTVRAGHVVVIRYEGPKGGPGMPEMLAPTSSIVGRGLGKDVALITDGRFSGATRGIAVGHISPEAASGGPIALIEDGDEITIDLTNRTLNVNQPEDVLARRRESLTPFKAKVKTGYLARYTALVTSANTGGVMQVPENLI

SMILES	Ki [1] [µM]	Ki [2] [µM]	Ki [3] [µM]	Ki [4] [µM]
CC(C)N(O)C(=O)C(=O)O [IpOHA]	32.9	7.8	–	–
CC(C)=C1CC[C@]23CO[C@H](C2)[C@@](O)(C(=O)O)CC[C@@H]13 [aspterric acid]	–	–	35.1	51.6
